# Measured values reported in US12590126B2, “Compounds for selective disruption of protein-protein interactions” (SyntheX, Inc., priority 2017, dated 2026).
# Entries after “also recorded” stand apart in the source; their conditions may differ. Like-named read-outs stand apart in the source and are kept apart here. [ ]: non-standard residue; d: D form.
# Experiments:
# in vitro [1] = details: human, microsomes
# Experimental: (§1) For HLM and MLM stability studies, each compound was incubated with the liver microsome mixture for up to an hour at 37 C in the presence of NADPH.
# (§2) After the incubations, the reactions were stopped and the compounds were analyzed according to the method developed for each.
# in vitro [2] = details: mouse, microsomes
# Experimental: as §1, §2
# fresh human RBCs = format: cell-based
# Experimental: To assess the nonspecific lytic properties of each compounds disclosed herein, each mentioned compound was tested for hemolytic properties against fresh human RBCs. Briefly, donor blood was drawn into a K2EDTA anticoagulant tube from multiple O+ donors. The blood was washed 3 times in PBS. RBCs were diluted to 2% in PBS and compounds were added at various concentrations. Samples were incubated at 37 C for 1 hr, then centrifuged at 2200 rpm for 5 min. Supernatants were measured for absorbance at 450 nm or 405 nm. The percentage hemolysis was calculated as lysis relative to 1% Triton X-100 incubation.
# SSP-25 cells = experiment: xCELLigence cell death assay in SSP-25 cells (cellular assay for RAD51 inhibition); format: cell-based; details: concentration gradient added at 20 hour mark, only values with R^>0.85 shown
# Experimental: The efficacy of the peptides described herein was assessed by their ability to cause death in SSP-25 cells, which have amplification of RAD51 and are dependent on its activity.
# First, 5,000 SSP25 cells were plated, and adherence and growth was measured for 20 hours using live measurements of current impedance through the plate using the xCELLigence™ instrument. At the 20 hour mark, a concentration gradient of each compound or a PBS control was added to the SSP-25 cells, which were cultured in […] RMPI media with 10% FBS. […] Only values with confidence and R^>0.85 are shown.
# [3] = Mouse pharmacokinetics, IV and IP dosing; format: in vivo, mice
# Experimental: The pharmocokinetic parameters in mice by both intravenous (IV) and intraperitoneal (IP) dosing, as well as the serum and microsome stability for each of compound 22, 23, 24, and 25 was determined. Bioanalytical methods were developed for each compound using an LC-MS/MS method with LLOQ>100 ng/ml.
# For in-vivo PK work, at least 3 mice were used per timepoint. For each compound, the animals were injected either IV or IP with the compound. IV injections used 1 mg/kg, and IP injections were at 15 mg/kg. Blood was collected at the indicated timepoints and analyzed according to the bioanalytical method developed.
# in vitro [4] = details: mouse, serum
# Experimental: Serum stability data was obtained using the appropriate animal serum, each incubated with the compound for up to two hours at 37 C.
# SSP25 cells [5] = experiment: xCELLigence cell death assay with necroptosis or apoptosis inhibitor; format: cell-based; details: for cell death with added necroptosis inhibitor Necrostatin: 40 μM compound + 50 μM Necrostatin; for cell death with added apoptosis inhibitor z-VAD: 40 μM compound + 100 μM z-VAD
# Experimental: Further experiments were performed to elucidate the method of cell death induced by Compound 1. In one experiment, xCELLIGENCE cell death assays as in Examples 1 and 5 were performed, treating with either a necroptosis inhibitor (Necrostatin, 50 μM) alone or in combination with Compound 1 (40 μM). In another experiment, xCELLIGENCE cell death assays as in Examples 1 and 5 were performed, treating with either a apoptosis inhibitor (z-VAD, 100 μM) alone or in combination with Compound 1 (40 μM).
# A549 xenograft = A549 xenograft in athymic nu/nu mice, Compound 1 IT and IP; format: in vivo; details: for tumor volume / size, intra-tumoral dosing: 50 microliters of 10 or 20 mg/ml IT, day 0, day 3 and every other day
# Experimental: Female athymic nu/nu mice (6-8 weeks old) were purchased from Simonsen labs (n=12) and were housed at the Murigenics vivarium in Vallejo. The mice were acclimated to the setting of the vivarium for 5 days and maintained on a standard chow diet; 12:12 dark/light cycle; and group housed (3 mice per cage) in HEPA-filtered cages. After acclimation, each mouse was injected subcutaneously (lower left abdominal flank) with 5×10^6 A549 (ATCC: CCL-185) cells mixed with 1:1 (v/v) with Matrigel solution. When the tumors reached a volume of—100 mm3, the mice were divided into separate treatment groups for the desired treatments. Experiments using both intra-tumoral (IT) and intraperitoneal (IP) administration were performed and the data are reported in FIGS. 10 and 11.
# Mice prepared as described above were divided into 4 groups: • Group 1: received an intra-tumoral injection of 50 microliters of Phosphate Buffered Saline (mock) (n=3) • Group 2: received an intra-tumoral injection of 50 microliters of 10 mg/ml Compound 1 in Phosphate Buffered Saline (n=3) • Group 3: received an intra-tumoral injection of 50 microliters of 20 mg/ml Compound 1 in Phosphate Buffered Saline (n=3)
# The 50 microliter injections were carried out with a (30 g needle). The injections were administered on day zero and then again on day 3, and every other day. The length (L) and the width (W) of the tumor mass was measured with a Vernier caliper and the tumor volume (V) was calculated as V=(L×WA2)/2. The relative tumor volume of each tumor mass on each measurement day was normalized against the initial volume of the same mass on day zero right before initiation of injections. […]
# The injections were carried out with a 30 g needle. […] The length (L) and the width (W) of the tumor mass was measured with a Vernier caliper and the tumor volume (V) was calculated as V=(L×WA2)/2. […]
# A549 cells [6] = experiment: A549 cell growth/death, xCELLigence and microscopy; format: cell-based; details: xCELLigence, concentration gradient
# Experimental: To assess the growth inhibitory properties of compounds disclosed herein, 10 μM of Compound 1 was tested against a PBS mock treatment for growth of A549 cells using microscopy at the indicated timepoints shown in the top right corner of each panel of FIG. 2. […] First, 5,000 A549 cells were plated, and adherence and growth was measured for 20 hours using live measurements of current impedance through the plate using the xCELLigence™ instrument. At the […] mark, a concentration gradient of Compound 1 or a PBS control was added to the A549 cells, which were cultured in 100 μL DMEM media with 10% FBS.
# SSP25 cells [7] = experiment: Selective killing, Cytation imaging of SSP25 cells; format: cell-based; details: 10 μM
# Experimental: To assess the specificity of compounds disclosed herein in targeting cancers with overexpression of RAD51, Compound 1 was tested against primary fibroblasts and SSP25 cells (cholangiocarcinoma cell line) (FIG. 5). First, 5,000 cells were incubated in 96-well culture plates overnight. Cells were grown in DMEM or RPMI, respectively, with 10% FBS, and […] was added to a concentration of 10 μM and imaging commenced using a Cytation™ instrument using approximately 5 minute time points. DAPI was used to visualize the nuclei and mitotracker-red was used to observe mitochondria. […] Furthermore, cell morphology was affected within 5 minutes of imaging, and the macrobubble phenotype was stable for further periods of time.
# SSP25 cells [8] = experiment: xCELLigence cell death assay with intracellular calcium chelators; format: cell-based; details: relative to compound alone
# Experimental: To investigate the hypothesis that peptide treatment of cells causes cell death via increases in intracellular free calcium levels, Compound 1 alone and in combination with two different intracellular calcium chelators (1,2-Bis(2-aminophenoxy)ethane-N,N,N′,N′-tetraacetic acid tetrakis(acetoxymethyl ester) aka “BAPTA-AM”, and ammoniated ruthenium oxychloride aka “ruthenium red”) was tested in an xCELLigence™ cell death assay as in Example 1. The intracellular calcium chelators alone were also evaluated on the cells.
# A549 cells [9] = experiment: Intracellular calcium imaging with Fluo-2-AM; format: cell-based; details: 30 μM compound, pre-incubation with 2.5 μM Fluo-2-AM
# From the text: Timestamps for the duration of the experiment are indicated in each panel.
compound,measurement,setting,value
"CCCC[C@@H](NC(=O)[C@@H](CC(C)C)NC(C)=O)C(=O)N[C@H](CCCNC(=N)N)C(=O)N[C@H](CO)C(=O)N[C@@H](C(=O)N[C@H](CCCNC(=N)N)C(=O)N[C@H](CC(C)C)C(=O)N[C@H](CCCNC(=N)N)C(=O)N[C@@H](C(=O)NCC(=O)N[C@H](CC(C)C)C(=O)N[C@H](CCCNC(=N)N)C(=O)NCCCCCC(=O)N[C@H](CCCNC(=N)N)C(=O)NCCCCCC(=O)N[C@H](CCCNC(=N)N)C(=O)NCCCCCC(=O)N[C@H](CCCNC(=N)N)C(=O)NCCCCCC(=O)N[C@H](CCCNC(=N)N)C(=O)NCCCCCC(=O)N[C@H](CCCNC(=N)N)C(N)=O)C(C)C)C(C)C [Compound 25, Ac-l{d-norLeucine}rsvrlrvGlr(Ahx)r(Ahx)r(Ahx)r(Ahx)r(Ahx)r-NH2]",half-life,in vitro [1],1.36 h
same,half-life,in vitro [2],0.77 h
same,% Hemolysis (250 uM),"fresh human RBCs; red cells of human, 1 h, 250",4%
same,IC50,SSP-25 cells,14 µM
same,AUC Extr,[3]; 1 mg/kg IV,16.8%
same,Vss,[3]; 15 mg/kg IP,3.41 L/kg
same,AUC(0-inf),"[3]; in vivo, 1 mg/kg IV",308 ng·h/mL
same,AUC(0-t),"[3]; in vivo, 1 mg/kg IV",254 ng·h/mL
same,C0,"[3]; in vivo, 1 mg/kg IV",750 ng/mL
same,MRT inf,"[3]; in vivo, 1 mg/kg IV",0.551 h
same,clearance,"[3]; in vivo, 1 mg/kg IV",55.7 mL/min/kg
same,AUC(0-inf),"[3]; in vivo, 15 mg/kg IP",831 ng·h/mL
same,MRT inf,"[3]; in vivo, 15 mg/kg IP",21.8 h
same,half-life,"[3]; in vivo, ip, 15 mg/kg, 15 mg/kg IP, read-out: t½ (converted)",2.14 h
same,half-life,"[3]; in vivo, ip, 15 mg/kg, IP (15 mg/kg), read-out: Half-life Mouse IP",2.14 h
same,Vd,"[3]; in vivo, iv, 1 mg/kg, 1 mg/kg IV, read-out: Vss",1.8 L/kg
same,Vd,"[3]; in vivo, iv, 1 mg/kg, 1 mg/kg IV, read-out: Vz",1.99 L/kg
same,half-life,"[3]; in vivo, iv, 1 mg/kg, 1 mg/kg IV, read-out: t½ (converted)",0.423 h
same,half-life,"[3]; in vivo, iv, 1 mg/kg, IV (1 mg/kg), read-out: Half-life Mouse IV",0.423 h
same,half-life,in vitro [4],> 8.33 h
Ac-lmrsvrlrvGlrkrrrrrrr-NH2 (Ac-[dL][dM][dR][dS][dV][dR][dL][dR][dV]G[dL][dR][dK][dR][dR][dR][dR][dR][dR][dR]-NH2) [Compound 1],cell death with added necroptosis inhibitor Necrostatin,SSP25 cells [5],addition of the inhibitor has no effect on the activity
same,cell death with added necroptosis inhibitor Necrostatin,SSP25 cells [5]; listed as compound 1,does not cause cell death through necroptosis or apoptosis
same,cell death with added apoptosis inhibitor z-VAD,SSP25 cells [5],addition of the inhibitor has no effect on the activity
same,cell death with added apoptosis inhibitor z-VAD,SSP25 cells [5]; listed as compound 1,does not cause cell death through necroptosis or apoptosis
same,"tumor volume / size, intra-tumoral dosing",A549 xenograft,measurable decreases in tumor size as early as day 3
same,"tumor volume / size, intra-tumoral dosing",A549 xenograft; listed as compound 1,significant effects on tumor volume after only a few days of treatment
same,"tumor size, intra-peritoneal dosing","A549 xenograft; 125 microliters of 3 mg/ml IP, single dose on day seven",measurable decreases in tumor size as early as 3 days after injection (day 10)
same,% Hemolysis (250 uM),fresh human RBCs,3%
same,effect on growth / cell death of A549 cells,A549 cells [6],dose-dependent effect on the growth of A549 cells displaying acute cell death kinetics
same,IC50,SSP-25 cells,2.4 µM
same,time until cell morphology was affected,SSP25 cells [7],≤ 5 minutes
same,cell morphology / cell death in SSP25 cells,SSP25 cells [7]; approx. 5 minute time points,drastically affected in SSP25 cells
same,cell death with added calcium chelator BAPTA-AM,SSP25 cells [8]; 10 μM compound + 10 μM BAPTA-AM,rescues cell death relative to compound alone; also recorded: addition of BAPTA-AM rescues cell death
same,cell death with added calcium chelator ruthenium red,SSP25 cells [8]; 10 μM compound + 40 μM Ruthenium red,rescues cell death relative to compound alone; also recorded: addition of ruthenium red rescues cell death
same,intracellular calcium (Fluo-2 dye),A549 cells [9],accumulation of intracellular calcium
